What was measured:
[1] = target: Cannabinoid receptor 1 (Mus musculus, UniProt P47746); assay: Displacement of [3H]-CP-55940 from cannabinoid CB1 receptor in CD1 mouse brain membranes after 1 hr by liquid scintillation counting; assay type: cell membranes, Membrane
[2] = target: Delta-type opioid receptor (Mus musculus, UniProt P32300); assay: Displacement of [3H]DPDPE from delta opioid receptor in CD1 mouse brain membranes after 1 hr by liquid scintillation counting; assay type: cell membranes, Membrane
[3] = target: Mu-type opioid receptor (Mus musculus, UniProt P42866); assay: Displacement of [3H]DAMGO from mu opioid receptor in CD1 mouse brain membranes after 1 hr by liquid scintillation counting; assay type: cell membranes, Membrane
[4] = target: Cannabinoid receptor 2 (Mus musculus, UniProt P47936); assay: Displacement of [3H]-CP-55940 from cannabinoid CB2 receptor in CD1 mouse spleen membranes after 1 hr by liquid scintillation counting; assay type: cell membranes, Membrane
[5] = organism: Mus musculus; assay: Selectivity ratio of Ki for delta opioid receptor in CD1 mouse brain membranes to Ki for mu opioid receptor in CD1 mouse brain membranes; assay type: cell membranes
[6] = organism: Mus musculus; assay: Selectivity ratio of Ki for cannabinoid CB1 receptor in CD1 mouse brain membranes to Ki for cannabinoid CB2 receptor in CD1 mouse spleen membranes; assay type: cell membranes

| Compound | Ki [1] [µM] | Ki [2] [µM] | Ki [3] [µM] | Ki [4] [µM] | Ratio Ki [5] | Ratio Ki [6] |
| --- | --- | --- | --- | --- | --- | --- |
| C=CC1OC1/C=C/C#CC#CC#CC (centres undefined) | > 50 | > 50 | > 50 | > 50 | – | – |
| CC(C)CCNC(=O)/C=C/C=C/C=C/c1cccs1 | 2.2 | 26.5 | 8.1 | 5 | 3.27 | 0.44 |
| O=C(/C=C/C=C/C=C/c1cccs1)N1C=CCCC1 | > 50 | 11.5 | 29 | 13.5 | 0.4 | – |
| CCCCC/C=C\CC/C=C/C=C/C(=O)NCC(C)C | 1.2 | 7.7 | 7.5 | 0.55 | 1.03 | 2.18 |
| COc1cc([C@@H]2Oc3c(OC)cc(/C=C/C=O)cc3[C@H]2COC(=O)CC(C)C)ccc1O | 2.7 | 3.8 | 9 | 4.2 | 0.42 | 0.64 |
| CCCCC/C=C\CC/C=C/C=C/C(=O)N1CCCCC1 | 0.8 | 3.8 | 7.4 | 0.16 | 0.51 | 5 |
| CCCCCCCCC/C=C/C=C/C(=O)N1CCCCC1 | 6.7 | 6.5 | 5.75 | 24 | 1.13 | 0.28 |
| CC(C)CC(=O)OC/C=C\CCNC(=O)/C=C/C=C/C=C/c1cccs1 | 5.6 | 11 | 41.5 | 10.2 | 0.27 | 0.55 |
| O=C(/C=C/C=C/C=C/c1cccs1)N1CCCCC1 | 4.1 | 8 | 12.8 | 1.24 | 0.63 | 3.3 |
| CC(C)CNC(=O)/C=C/C=C/C=C/c1cccs1 | 8.8 | 25.5 | 52 | 8.25 | 0.49 | 1.07 |
| CCCCCCC/C=C/C=C/C(=O)NCC(C)C | 2.6 | 43 | 8.2 | 0.9 | 5.24 | 2.89 |
| CCCCCCCCC/C=C/C=C/C(=O)NCC(C)C | 1.4 | 22.5 | 51 | 1.17 | 0.44 | 1.2 |
